Values quoted from earlier work, collected in patent publication US6696575B2, “Biodegradable, electrically conducting polymer for tissue engineering applications” (Board of Regents, The University of Texas System, priority 2001, dated 2004).

Columns and labels:
mouse = conditions: oral administration
rat = conditions: oral administration
rat sciatic nerve = conditions: in vivo

| Molecule | one-half lethal dose (LD50) (rat) | further results |
| --- | --- | --- |
| OCCCO [Propanediol, 1,3-propanediol] | – | one-half lethal dose (LD50) (mouse): 5000 mg/kg |
| CCO [ethanol] | 7000 mg/kg | – |
| CCCCCC(=O)O [hexanoic acid] | 3000 mg/kg | – |
| polypyrrole [PP] | – | tissue response on implantation (rat sciatic nerve): provoked little adverse tissue response |
